Laboratory results from paper PMC8920474 (Current Research in Chemical Biology, 2022).

Experiments:
TMPRSS2 = TMPRSS2 (Homo sapiens, UniProt O15393); assay: VeroE6/TMPRSS2 cell-based TMPRSS2 enzyme inhibitory assay; conditions: VeroE6/TMPRSS2 cells; up to a concentration of 4.0 μM
TMPRSS2 in LNCaP cells = tested on: TMPRSS2 in LNCaP cells; design: species or system human; conditions: read-out: IC50, LNCaP cell-based proteolytic enzyme inhibition
furin = furin (Homo sapiens, UniProt P09958); assay: Vero/furin cell-based furin enzyme inhibitory assay; conditions: for furin inhibitory activity: Vero/furin cells, up to a concentration of 40.0 μM
furin, sequence (P09958 108-794): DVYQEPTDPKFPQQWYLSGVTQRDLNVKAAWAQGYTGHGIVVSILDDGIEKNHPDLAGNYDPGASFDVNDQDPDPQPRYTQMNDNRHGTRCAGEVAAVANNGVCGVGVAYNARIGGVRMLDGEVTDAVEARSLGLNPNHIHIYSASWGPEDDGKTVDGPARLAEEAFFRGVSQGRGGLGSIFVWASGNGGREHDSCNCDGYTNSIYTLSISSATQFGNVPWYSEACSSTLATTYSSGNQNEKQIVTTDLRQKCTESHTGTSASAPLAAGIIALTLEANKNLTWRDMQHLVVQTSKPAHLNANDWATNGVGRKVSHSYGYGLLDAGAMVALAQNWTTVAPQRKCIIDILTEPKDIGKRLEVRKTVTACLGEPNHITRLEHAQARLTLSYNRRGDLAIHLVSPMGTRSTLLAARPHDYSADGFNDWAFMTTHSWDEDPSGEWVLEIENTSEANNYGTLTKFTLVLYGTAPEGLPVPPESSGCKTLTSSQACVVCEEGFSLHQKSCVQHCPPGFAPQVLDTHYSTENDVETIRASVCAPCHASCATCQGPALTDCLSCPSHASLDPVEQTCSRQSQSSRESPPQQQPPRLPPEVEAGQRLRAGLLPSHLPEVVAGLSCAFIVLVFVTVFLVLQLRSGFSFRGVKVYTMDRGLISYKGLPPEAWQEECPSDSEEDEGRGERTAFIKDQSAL

TMPRSS2, sequence (O15393 whole entry): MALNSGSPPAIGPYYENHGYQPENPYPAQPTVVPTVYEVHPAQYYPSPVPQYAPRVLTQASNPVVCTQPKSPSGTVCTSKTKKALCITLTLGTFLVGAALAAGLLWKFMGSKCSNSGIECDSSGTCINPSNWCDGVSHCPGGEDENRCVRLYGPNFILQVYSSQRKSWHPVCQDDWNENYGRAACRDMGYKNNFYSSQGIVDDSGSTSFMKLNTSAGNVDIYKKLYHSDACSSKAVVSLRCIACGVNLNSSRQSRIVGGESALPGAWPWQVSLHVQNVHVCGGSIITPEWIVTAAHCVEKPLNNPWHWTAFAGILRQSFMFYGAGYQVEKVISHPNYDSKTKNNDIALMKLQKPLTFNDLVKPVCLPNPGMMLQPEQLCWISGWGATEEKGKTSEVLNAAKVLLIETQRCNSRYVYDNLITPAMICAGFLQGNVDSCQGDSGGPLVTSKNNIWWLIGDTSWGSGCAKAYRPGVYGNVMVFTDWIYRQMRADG

## CN(Cc1cc(Br)cc(Br)c1N)C1CCCCC1 [Bromhexine, bromhexine]
TMPRSS2
  TMPRSS2 inhibitory activity: inactive

## CN(C)C(=O)COC(=O)Cc1ccc(OC(=O)c2ccc(NC(=N)N)cc2)cc1 [camostat]
TMPRSS2 in LNCaP cells
  IC50: 0.026 ± 0.03 µM
furin
  furin inhibitory activity: inactive

## N=C(N)c1ccc(/N=N/Nc2ccc(C(=N)N)cc2)cc1 [diminazene]
furin
  IC50: 13.2 µM

## N=C(N)c1ccc2cc(OC(=O)c3ccc(N=C(N)N)cc3)ccc2c1 [nafamostat]
furin
  furin inhibitory activity: inactive
